Reference: the NIST ThermoML archive (doi:10.1021/je301132p)
± gives the expanded uncertainty stated by the source.

Experiment: mn = molality of the nth substance listed, in mol/kg
Conditions: Liquid, Vibrating tube method

O=S(=O)([O-])[O-].[Na+].[Na+] [sodium sulfate] + O
mass density [kg/m3]
Conditions | 298.11 K | 323.13 K | 348.12 K | 373.12 K | 398.08 K | 423.07 K | 448.03 K | 473.02 K
1100 kPa, m1 = 0.783 | 1089.58 ± 0.44 | 1077.81 ± 0.43 | 1063.59 ± 0.43 | 1047 ± 0.42 | 1028.03 ± 0.41 | 1006.98 ± 0.41 | 983.81 ± 0.4 | –
1100 kPa, m1 = 1.502 | 1164.61 ± 0.55 | 1151.3 ± 0.54 | 1136.41 ± 0.54 | 1119.57 ± 0.53 | 1100.73 ± 0.52 | 1080.12 ± 0.51 | 1057.71 ± 0.5 | –
10100 kPa, m1 = 0.783 | 1092.97 ± 0.44 | 1081.15 ± 0.44 | 1067.05 ± 0.43 | 1050.62 ± 0.42 | 1032.04 ± 0.42 | 1011.36 ± 0.41 | 988.74 ± 0.4 | 963.68 ± 0.4
10100 kPa, m1 = 1.502 | 1167.61 ± 0.57 | 1154.41 ± 0.56 | 1139.53 ± 0.55 | 1122.86 ± 0.54 | 1104.32 ± 0.53 | 1084.06 ± 0.52 | 1062.06 ± 0.51 | 1038.23 ± 0.5
20100 kPa, m1 = 0.783 | 1096.83 ± 0.46 | 1084.87 ± 0.45 | 1070.84 ± 0.44 | 1054.57 ± 0.43 | 1036.41 ± 0.42 | 1016.13 ± 0.41 | 994.07 ± 0.41 | 969.72 ± 0.4
20100 kPa, m1 = 1.502 | 1170.98 ± 0.59 | 1157.75 ± 0.58 | 1143.04 ± 0.57 | 1126.48 ± 0.56 | 1108.32 ± 0.54 | 1088.31 ± 0.53 | 1067 ± 0.52 | 1043.59 ± 0.5
30100 kPa, m1 = 0.783 | 1100.47 ± 0.47 | 1088.46 ± 0.46 | 1074.53 ± 0.45 | 1058.52 ± 0.44 | 1040.58 ± 0.43 | 1020.77 ± 0.42 | 998.93 ± 0.41 | 975.48 ± 0.41
30100 kPa, m1 = 1.502 | 1174.24 ± 0.62 | 1161 ± 0.61 | 1146.45 ± 0.59 | 1130.05 ± 0.58 | 1112.1 ± 0.56 | 1092.62 ± 0.54 | 1071.61 ± 0.53 | 1048.78 ± 0.51
40100 kPa, m1 = 0.783 | 1104.07 ± 0.49 | 1092.02 ± 0.48 | 1078.24 ± 0.46 | 1062.4 ± 0.45 | 1044.61 ± 0.43 | 1025.11 ± 0.42 | 1004.1 ± 0.41 | 981.03 ± 0.41
40100 kPa, m1 = 1.502 | 1177.46 ± 0.66 | 1164.24 ± 0.64 | 1149.78 ± 0.62 | 1133.55 ± 0.6 | 1115.8 ± 0.58 | 1096.64 ± 0.56 | 1076.11 ± 0.54 | 1053.91 ± 0.52
50100 kPa, m1 = 0.783 | 1107.68 ± 0.51 | 1095.52 ± 0.5 | 1081.79 ± 0.48 | 1066.07 ± 0.46 | 1048.55 ± 0.44 | 1029.51 ± 0.42 | 1008.75 ± 0.41 | 986.37 ± 0.41
50100 kPa, m1 = 1.502 | 1180.69 ± 0.7 | 1167.41 ± 0.68 | 1153.06 ± 0.65 | 1136.94 ± 0.63 | 1119.47 ± 0.6 | 1100.57 ± 0.58 | 1080.33 ± 0.55 | 1058.64 ± 0.53
60100 kPa, m1 = 0.783 | 1111.07 ± 0.54 | 1098.98 ± 0.52 | 1085.27 ± 0.5 | 1069.75 ± 0.47 | 1052.44 ± 0.45 | 1033.66 ± 0.43 | 1013.33 ± 0.41 | 991.46 ± 0.41
60100 kPa, m1 = 1.502 | 1183.64 ± 0.75 | 1170.49 ± 0.72 | 1156.2 ± 0.69 | 1140.35 ± 0.66 | 1123.02 ± 0.63 | 1104.44 ± 0.6 | 1084.59 ± 0.57 | 1063.34 ± 0.55
68600 kPa, m1 = 0.783 | 1113.99 ± 0.57 | 1101.8 ± 0.54 | 1088.2 ± 0.52 | 1072.82 ± 0.49 | 1055.65 ± 0.46 | 1037.1 ± 0.44 | 1017.15 ± 0.42 | 995.65 ± 0.41
68600 kPa, m1 = 1.502 | 1186.24 ± 0.79 | 1173.08 ± 0.76 | 1158.87 ± 0.73 | 1143.15 ± 0.7 | 1125.97 ± 0.66 | 1107.66 ± 0.63 | 1088.14 ± 0.59 | 1067.18 ± 0.56
